Source: PubChem BioAssay AID1845211 (Molecular Pharmacology Branch, DTP, NCI, 2023)

Tested on: NCI-H322M multicellular tumor spheroids, viability (% test/control)
Assay: Anticancer human tumor NCI-H322M cell line growth inhibition;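 on viability, T/C: spheroids exposed to compound for seven days before readout; 100% = DMSO vehicle control wells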
Settings: for IC50: curve of first compound; for viability, T/C: stronger effect = lower value; active means viability on the fitted dose curve at most 10% of control; inactive means the rest
Procedure, shortened: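 Complex tumor spheroids combined malignant cells with endothelial cells and mesenchymal stem cells. DNA-damaging drugs and DNA repair inhibitors were tested alone and in combination, at half-log dilutions down from clinical Cmax (top 10 microM if Cmax unknown), 0.25% DMSO final.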

[1] = second compound 0.003 µM, first compound 0.0316 µM
[2] = second compound 0.003 µM, first compound 0.1 µM
[3] = second compound 0.003 µM, first compound 0.316 µM
[4] = second compound 0.003 µM, first compound 1 µM
[5] = second compound 0.003 µM, first compound 3.16 µM
[6] = second compound 0.003 µM, first compound 10 µM

[2H]c1nc(C)nc([2H])c1-c1cc(NC[C@@H](C)c2cccc3c(C(=O)NC)ccnc23)ncn1 + COc1cc2c(cc1O)CCNC21CSC2c3c(OC(C)=O)c(C)c4c(c3C(COC1=O)N1C(O)C3Cc5cc(C)c(OC)c(O)c5C(C21)N3C)OCO4
> 10000 nM: IC50 (second compound 30 pM) | IC50 (second compound 94.9 pM) | IC50 (second compound 0.0003 µM) | IC50 (second compound 0.000949 µM)
active: viability, T/C [4] 10.9% | viability, T/C [5] 8.62% | viability, T/C [6] 5.55%
< 31.6 nM: IC50 (second compound 0.003 µM)
inactive: viability, T/C (second compound 30 pM, first compound 0.0316 µM) 80.4% | viability, T/C (second compound 30 pM, first compound 0.1 µM) 89.1% | viability, T/C (second compound 30 pM, first compound 0.316 µM) 85.6% | viability, T/C (second compound 30 pM, first compound 1 µM) 84.7% | viability, T/C (second compound 30 pM, first compound 3.16 µM) 75.2% | viability, T/C (second compound 30 pM, first compound 10 µM) 90.2% | viability, T/C (second compound 94.9 pM, first compound 0.0316 µM) 81.3% | viability, T/C (second compound 94.9 pM, first compound 0.1 µM) 76.7% | viability, T/C (second compound 94.9 pM, first compound 0.316 µM) 92.1% | viability, T/C (second compound 94.9 pM, first compound 1 µM) 90.1% | viability, T/C (second compound 94.9 pM, first compound 3.16 µM) 85.7% | viability, T/C (second compound 94.9 pM, first compound 10 µM) 94.9% | viability, T/C (second compound 0.0003 µM, first compound 0.0316 µM) 89% | viability, T/C (second compound 0.0003 µM, first compound 0.1 µM) 78.9% | viability, T/C (second compound 0.0003 µM, first compound 0.316 µM) 90.5% | viability, T/C (second compound 0.0003 µM, first compound 1 µM) 84.2% | viability, T/C (second compound 0.0003 µM, first compound 3.16 µM) 94.9% | viability, T/C (second compound 0.0003 µM, first compound 10 µM) 93.3% | viability, T/C (second compound 0.000949 µM, first compound 0.0316 µM) 81% | viability, T/C (second compound 0.000949 µM, first compound 0.1 µM) 79.3% | viability, T/C (second compound 0.000949 µM, first compound 0.316 µM) 84% | viability, T/C (second compound 0.000949 µM, first compound 1 µM) 82% | viability, T/C (second compound 0.000949 µM, first compound 3.16 µM) 76% | viability, T/C (second compound 0.000949 µM, first compound 10 µM) 75.8% | viability, T/C [1] 15.8% | viability, T/C [2] 12.2% | viability, T/C [3] 10.5%

CC1COCCN1c1cc(-c2ccnn2C)c2ccnc(-c3ccn[nH]3)c2n1 (stereo not given) + CC[C@@]1(O)C(=O)OCc2c1cc1n(c2=O)Cc2cc3c(CN(C)C)c(O)ccc3nc2-1
inactive: viability, T/C [1] 55.8% | viability, T/C [2] 40.6% | viability, T/C [3] 35% | viability, T/C [4] 32.3% | viability, T/C [5] 30.8% | viability, T/C [6] 38.3% | viability, T/C (second compound 0.00949 µM, first compound 0.0316 µM) 51.6% | viability, T/C (second compound 0.00949 µM, first compound 0.1 µM) 39.1% | viability, T/C (second compound 0.00949 µM, first compound 0.316 µM) 35.5% | viability, T/C (second compound 0.00949 µM, first compound 1 µM) 32.6% | viability, T/C (second compound 0.00949 µM, first compound 3.16 µM) 32.9% | viability, T/C (second compound 0.00949 µM, first compound 10 µM) 34.5% | viability, T/C (second compound 0.03 µM, first compound 0.0316 µM) 43.8% | viability, T/C (second compound 0.03 µM, first compound 0.1 µM) 32.6% | viability, T/C (second compound 0.03 µM, first compound 0.316 µM) 30.8% | viability, T/C (second compound 0.03 µM, first compound 1 µM) 30.4% | viability, T/C (second compound 0.03 µM, first compound 3.16 µM) 32.1% | viability, T/C (second compound 0.03 µM, first compound 10 µM) 35.9% | viability, T/C (second compound 0.0949 µM, first compound 0.0316 µM) 33.6% | viability, T/C (second compound 0.0949 µM, first compound 0.1 µM) 28.1% | viability, T/C (second compound 0.0949 µM, first compound 0.316 µM) 26.6% | viability, T/C (second compound 0.0949 µM, first compound 1 µM) 26.9% | viability, T/C (second compound 0.0949 µM, first compound 3.16 µM) 28.1% | viability, T/C (second compound 0.0949 µM, first compound 10 µM) 29.9% | viability, T/C (second compound 0.3 µM, first compound 0.0316 µM) 23.1% | viability, T/C (second compound 0.3 µM, first compound 0.1 µM) 18.9% | viability, T/C (second compound 0.3 µM, first compound 0.316 µM) 19.8% | viability, T/C (second compound 0.3 µM, first compound 1 µM) 23.6% | viability, T/C (second compound 0.3 µM, first compound 3.16 µM) 20.1% | viability, T/C (second compound 0.3 µM, first compound 10 µM) 27.7%
< 31.6 nM: IC50 (second compound 0.003 µM) | IC50 (second compound 0.00949 µM) | IC50 (second compound 0.03 µM) | IC50 (second compound 0.0949 µM) | IC50 (second compound 0.3 µM)
